The values below come from publication PMC10763615, “Identification and engineering of potent cyclic peptides with selective or promiscuous binding through biochemical profiling and bioinformatic data analysis” (RSC Chemical Biology, 2023).

Structures are written as SMILES. Read-outs that look alike come from different tables or passages of the source. Positions of bridges follow the written chain, without caps; N, C: chain ends. Residues, ends and D or L forms follow the SMILES beside them. Bounds are passed on as bounds.

Assay type in all cases: binding
In one assay the target is T1, FGF-R4 ECD (Homo sapiens, UniProt P22455).
T1 construct: DNA constructs for the extracellular domain (ECD) of human FGF-; HPC4 (C); made in house; host or cells: HEK 293-6E
T1 sequence (P22455 22-369 limits assumed): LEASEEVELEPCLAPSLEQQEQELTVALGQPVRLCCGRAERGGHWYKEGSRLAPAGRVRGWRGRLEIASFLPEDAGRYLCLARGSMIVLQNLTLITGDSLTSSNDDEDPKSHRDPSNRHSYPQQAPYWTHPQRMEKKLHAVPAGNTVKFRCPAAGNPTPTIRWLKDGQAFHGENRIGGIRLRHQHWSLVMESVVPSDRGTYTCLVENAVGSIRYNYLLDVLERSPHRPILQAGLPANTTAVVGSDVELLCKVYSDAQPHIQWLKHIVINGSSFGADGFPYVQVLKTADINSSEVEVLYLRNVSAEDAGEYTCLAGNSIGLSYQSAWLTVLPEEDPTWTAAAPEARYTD
The assay is described as follows: single concentration BLI of crude peptides. Conditions: read-out: KD (4). The method in brief: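 Biotinylated FGF-R ECD on streptavidin biosensors was dipped into ~1 μM crude peptide in PBS pH7.4 with 0.05% Tween-20 and 0.01% BSA for association, then into buffer for dissociation, and followed by BLI. Fitted KD values were adjusted for peptide concentration measured by UPLC-CAD.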

The target in another assay is T2, FGF-R3C ECD (Homo sapiens, UniProt P22607).
T2 sequence (P22607 23-375 limits assumed): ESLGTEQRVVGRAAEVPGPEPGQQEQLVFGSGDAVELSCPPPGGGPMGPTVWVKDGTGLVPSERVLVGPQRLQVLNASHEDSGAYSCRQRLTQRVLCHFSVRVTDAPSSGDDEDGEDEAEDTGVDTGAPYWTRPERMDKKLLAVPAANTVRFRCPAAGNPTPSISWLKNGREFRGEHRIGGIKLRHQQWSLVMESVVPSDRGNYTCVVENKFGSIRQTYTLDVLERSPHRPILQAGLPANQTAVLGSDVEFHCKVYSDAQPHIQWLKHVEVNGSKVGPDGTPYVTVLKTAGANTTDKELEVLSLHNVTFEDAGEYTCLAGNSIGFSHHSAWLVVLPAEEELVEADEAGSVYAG
In words: biochemical. Details: DNA constructs for the extracellular domain (ECD) of human FGF-; HPC4 (C); made in house; host or cells: HEK 293-6E. Put shortly:
(§1)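 BLI, streptavidin sensors loaded with biotinylated receptor ECD. Single-point: ~1 μM crude peptide, PBS pH7.4/0.05% Tween-20/0.01% BSA; association then dissociation in buffer. KD corrected for UPLC-CAD-determined concentration.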

The target in the next assay is T3, FGF-R1C ECD (Homo sapiens, UniProt P11362).
T3 sequence (P11362 22-376 limits assumed): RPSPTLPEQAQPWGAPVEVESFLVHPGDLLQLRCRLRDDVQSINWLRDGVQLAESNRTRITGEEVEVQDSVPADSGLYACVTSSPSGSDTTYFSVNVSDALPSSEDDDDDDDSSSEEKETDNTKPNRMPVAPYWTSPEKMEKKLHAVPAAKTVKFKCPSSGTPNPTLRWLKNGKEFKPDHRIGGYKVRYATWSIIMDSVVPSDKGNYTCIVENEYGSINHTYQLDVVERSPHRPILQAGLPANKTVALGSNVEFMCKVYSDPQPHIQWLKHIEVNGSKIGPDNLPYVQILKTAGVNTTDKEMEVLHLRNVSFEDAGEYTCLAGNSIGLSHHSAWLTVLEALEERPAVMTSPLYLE
The assay is described as follows: biochemical. Details: DNA constructs for the extracellular domain (ECD) of human FGF-; HPC4 (C); made in house; host or cells: HEK 293-6E. Put shortly: as §1

Setting [1] is: crude T18 selection 1 (1:1:1) peptides, single concentration BLI (Table S4).
Setting [2] is: crude NNK peptides, single concentration BLI (Table S3).

What is called Kd is the free concentration of one partner at which half of the binding sites on the other are occupied at equilibrium, for simple one-to-one binding. With `CSCC[C@H](NC(C)=O)C(=O)N[C@H]1CSSC[C@@H](C(=O)NCC(=O)N[C@@H](CO)C(=O)NCC(=O)N[C@@H](CO)C(=O)N[C@@H](CC(=O)O)C(=O)N[C@@H](Cc2ccc(O)cc2)C(=O)N[C@@H](CCCCN)C(=O)N[C@@H](CC(=O)O)C(=O)N[C@@H](CC(=O)O)C(=O)N[C@@H](CC(=O)O)C(=O)N[C@@H](CC(=O)O)C(=O)N[C@@H](CCCCN)C(N)=O)NC(=O)[C@@H]2CCCN2C(=O)[C@H](Cc2ccc(O)cc2)NC(=O)[C@H](Cc2c[nH]c3ccccc23)NC(=O)[C@H](Cc2ccc(O)cc2)NC(=O)[C@H](CC(N)=O)NC(=O)[C@H](CO)NC(=O)[C@H](Cc2c[nH]c3ccccc23)NC(=O)[C@H](CCCNC(=N)N)NC(=O)[C@H](CO)NC(=O)[C@H](CCCNC(=N)N)NC(=O)[C@H](CCC(N)=O)NC(=O)[C@H](CCC(=O)O)NC1=O` (Ac-MCEQRSRWSNYWYPCGSGSDYKDDDDK-NH2; disulfide 2-15), the Kd at FGF-R4 ECD (setting [1]), at FGF-R3C ECD and at FGF-R1C ECD was greater than 10 µM in each case.

As for `CC[C@H](C)[C@@H]1NC(=O)[C@H](CCCCN)NC(=O)[C@H](Cc2ccc(O)cc2)NC(=O)[C@H](Cc2c[nH]c3ccccc23)NC(=O)[C@H]([C@@H](C)CC)NC(=O)[C@H](C(C)C)NC(=O)[C@H](CCC(=O)O)NC(=O)[C@@H](NC(=O)[C@H](CCSC)NC(C)=O)CSSC[C@@H](C(=O)NCC(=O)N[C@@H](CO)C(=O)NCC(=O)N[C@@H](CO)C(=O)N[C@@H](CC(=O)O)C(=O)N[C@@H](Cc2ccc(O)cc2)C(=O)N[C@@H](CCCCN)C(=O)N[C@@H](CC(=O)O)C(=O)N[C@@H](CC(=O)O)C(=O)N[C@@H](CC(=O)O)C(=O)N[C@@H](CC(=O)O)C(=O)N[C@@H](CCCCN)C(N)=O)NC(=O)[C@H](CCCCN)NC(=O)[C@H](CCCNC(=N)N)NC(=O)[C@H](Cc2c[nH]c3ccccc23)NC(=O)[C@H](CCC(N)=O)NC1=O` (Ac-MCEVIWYKIQWRKCGSGSDYKDDDDK-NH2; disulfide 2-14), the figures for the Kd at FGF-R4 ECD (setting [1]), on FGF-R3C ECD and at FGF-R1C ECD were 0.012 µM, greater than 10 µM and greater than 10 µM, respectively.

Regarding `CC[C@H](C)[C@@H]1NC(=O)[C@H](CC(C)C)NC(=O)[C@H](Cc2ccccc2)NC(=O)[C@H](Cc2ccc(O)cc2)NC(=O)[C@H](CCCCN)NC(=O)[C@H](C(C)C)NC(=O)[C@H](CCC(=O)O)NC(=O)[C@@H](NC(=O)[C@H](CCSC)NC(C)=O)CSSC[C@@H](C(=O)NCC(=O)N[C@@H](CO)C(=O)NCC(=O)N[C@@H](CO)C(=O)N[C@@H](CC(=O)O)C(=O)N[C@@H](Cc2ccc(O)cc2)C(=O)N[C@@H](CCCCN)C(=O)N[C@@H](CC(=O)O)C(=O)N[C@@H](CC(=O)O)C(=O)N[C@@H](CC(=O)O)C(=O)N[C@@H](CC(=O)O)C(=O)N[C@@H](CCCCN)C(N)=O)NC(=O)[C@H](Cc2c[nH]c3ccccc23)NC(=O)[C@H](CCCNC(=N)N)NC(=O)[C@H](CCCCN)NC(=O)[C@H](Cc2c[nH]c3ccccc23)NC1=O` (Ac-MCEVKYFLIWKRWCGSGSDYKDDDDK-NH2; disulfide 2-14), the Kd on FGF-R4 ECD (setting [1]) was 0.015 µM; on FGF-R3C ECD it was greater than 10 µM; at FGF-R1C ECD, 0.65 µM.

As to `CSCC[C@H](NC(C)=O)C(=O)N[C@H]1CSSC[C@@H](C(=O)NCC(=O)N[C@@H](CO)C(=O)NCC(=O)N[C@@H](CO)C(=O)N[C@@H](CC(=O)O)C(=O)N[C@@H](Cc2ccc(O)cc2)C(=O)N[C@@H](CCCCN)C(=O)N[C@@H](CC(=O)O)C(=O)N[C@@H](CC(=O)O)C(=O)N[C@@H](CC(=O)O)C(=O)N[C@@H](CC(=O)O)C(=O)N[C@@H](CCCCN)C(N)=O)NC(=O)[C@H](Cc2ccc(O)cc2)NC(=O)[C@H](C(C)C)NC(=O)[C@H](Cc2ccc(O)cc2)NC(=O)[C@H](Cc2c[nH]c3ccccc23)NC(=O)[C@H](CO)NC(=O)[C@H](CCCCN)NC(=O)[C@H](Cc2c[nH]cn2)NC(=O)[C@H](Cc2ccc(O)cc2)NC(=O)[C@H](Cc2ccc(O)cc2)NC(=O)[C@H](Cc2ccccc2)NC(=O)[C@H](Cc2c[nH]c3ccccc23)NC(=O)[C@H](CCC(=O)O)NC1=O` (Ac-MCEWFYYHKSWYVYCGSGSDYKDDDDK-NH2; disulfide 2-15), the Kd at FGF-R4 ECD (setting [1]) was greater than 10 µM; on FGF-R3C ECD, greater than 10 µM; at FGF-R1C ECD it was 0.191 µM.

With `CC[C@H](C)[C@@H]1NC(=O)[C@H](CCCCN)NC(=O)[C@H](Cc2ccc(O)cc2)NC(=O)[C@H](CC(C)C)NC(=O)[C@H](CC(C)C)NC(=O)[C@H](C)NC(=O)[C@H](Cc2ccccc2)NC(=O)[C@@H](NC(=O)[C@H](CCSC)NC(C)=O)CSSC[C@@H](C(=O)NCC(=O)N[C@@H](CO)C(=O)NCC(=O)N[C@@H](CO)C(=O)N[C@@H](CC(=O)O)C(=O)N[C@@H](Cc2ccc(O)cc2)C(=O)N[C@@H](CCCCN)C(=O)N[C@@H](CC(=O)O)C(=O)N[C@@H](CC(=O)O)C(=O)N[C@@H](CC(=O)O)C(=O)N[C@@H](CC(=O)O)C(=O)N[C@@H](CCCCN)C(N)=O)NC(=O)[C@H](CCCNC(=N)N)NC(=O)[C@H](CO)NC(=O)[C@H](CC(C)C)NC1=O` (Ac-MCFALLYKILSRCGSGSDYKDDDDK-NH2; disulfide 2-13), the Kd at FGF-R4 ECD (setting [2]), on FGF-R3C ECD and at FGF-R1C ECD was greater than 10 µM in each case.

As for `CSCC[C@H](NC(C)=O)C(=O)N[C@H]1CSSC[C@@H](C(=O)NCC(=O)N[C@@H](CO)C(=O)NCC(=O)N[C@@H](CO)C(=O)N[C@@H](CC(=O)O)C(=O)N[C@@H](Cc2ccc(O)cc2)C(=O)N[C@@H](CCCCN)C(=O)N[C@@H](CC(=O)O)C(=O)N[C@@H](CC(=O)O)C(=O)N[C@@H](CC(=O)O)C(=O)N[C@@H](CC(=O)O)C(=O)N[C@@H](CCCCN)C(N)=O)NC(=O)[C@H](Cc2ccc(O)cc2)NC(=O)[C@H](C(C)C)NC(=O)[C@H](Cc2ccccc2)NC(=O)[C@H](C(C)C)NC(=O)[C@H](CCCCN)NC(=O)[C@H]([C@@H](C)O)NC(=O)[C@H](CCCCN)NC(=O)[C@H](Cc2c[nH]cn2)NC(=O)[C@H](CC(=O)O)NC(=O)[C@H](CC(C)C)NC(=O)[C@H](Cc2ccccc2)NC1=O` (Ac-MCFLDHKTKVFVYCGSGSDYKDDDDK-NH2; disulfide 2-14), the Kd on FGF-R4 ECD (setting [1]) was 0.13 µM; at FGF-R3C ECD, greater than 10 µM; on FGF-R1C ECD, greater than 10 µM.

In the case of `CC[C@H](C)[C@@H]1NC(=O)[C@@H]2CCCN2C(=O)[C@H](Cc2c[nH]c3ccccc23)NC(=O)[C@H](Cc2ccccc2)NC(=O)[C@@H](NC(=O)[C@H](CCSC)NC(C)=O)CSSC[C@@H](C(=O)NCC(=O)N[C@@H](CO)C(=O)NCC(=O)N[C@@H](CO)C(=O)N[C@@H](CC(=O)O)C(=O)N[C@@H](Cc2ccc(O)cc2)C(=O)N[C@@H](CCCCN)C(=O)N[C@@H](CC(=O)O)C(=O)N[C@@H](CC(=O)O)C(=O)N[C@@H](CC(=O)O)C(=O)N[C@@H](CC(=O)O)C(=O)N[C@@H](CCCCN)C(N)=O)NC(=O)[C@H](C)NC(=O)[C@H](CCSC)NC(=O)[C@H](Cc2ccccc2)NC(=O)[C@H](CCCCN)NC(=O)[C@H](Cc2ccc(O)cc2)NC(=O)[C@H](Cc2c[nH]c3ccccc23)NC1=O` (Ac-MCFWPIWYKFMACGSGSDYKDDDDK-NH2; disulfide 2-13), the dissociation constant (Kd) at FGF-R4 ECD (setting [2]), on FGF-R3C ECD and on FGF-R1C ECD was greater than 10 µM in each case.

With `CSCC[C@H](NC(C)=O)C(=O)N[C@H]1CSSC[C@@H](C(=O)NCC(=O)N[C@@H](CO)C(=O)NCC(=O)N[C@@H](CO)C(=O)N[C@@H](CC(=O)O)C(=O)N[C@@H](Cc2ccc(O)cc2)C(=O)N[C@@H](CCCCN)C(=O)N[C@@H](CC(=O)O)C(=O)N[C@@H](CC(=O)O)C(=O)N[C@@H](CC(=O)O)C(=O)N[C@@H](CC(=O)O)C(=O)N[C@@H](CCCCN)C(N)=O)NC(=O)[C@H](C)NC(=O)[C@H](CC(C)C)NC(=O)[C@H](CC(C)C)NC(=O)[C@H](C)NC(=O)[C@@H]2CCCN2C(=O)[C@H](Cc2ccccc2)NC(=O)[C@H](Cc2ccccc2)NC(=O)[C@H](CCCNC(=N)N)NC(=O)[C@H](Cc2c[nH]c3ccccc23)NC(=O)[C@H](Cc2ccccc2)NC1=O` (Ac-MCFWRFFPALLACGSGSDYKDDDDK-NH2; disulfide 2-13), the Kd on FGF-R4 ECD (setting [2]), on FGF-R3C ECD and on FGF-R1C ECD was greater than 10 µM each time.
